Data published in patent publication US20200385396A1, “Compond for treatment or prevention of obesity or diseases related to obesity, and application thereof” (SHANGHAI INSTITUTES FOR BIOLOGICAL SCIENCES, CHINESE …, priority 2017, published 2020).

Experiments:
mice = assay: Inhibition of food intake in mice by HLY72/HLY78 derivatives; assay type: in vivo, mouse; details: for activity compared with HLY72 / activity relative to Hly72 / effective concentration (EC50) relative to HLY72: food intake; for activity compared with HLY72 / inhibition of food intake in mice: intraperitoneal, 75 umol/kg; for activity relative to Hly72 / effective concentration (EC50) relative to HLY72: compounds 7.5 umol/kg vs Hly72 75 umol/kg; for effective concentration (EC50) relative to HLY72: 5-6 mice per group
Procedure: All compounds are injected intraperitoneally with a concentration of 75 umol/kg (20 mg/kg of Hly72 equals 75 umol/kg). One-way ANOVA statistical analysis, *: P<0.05, **: P⋅<0.01, ***: P<0.001.
All compounds are injected intraperitoneally at a concentration of 75 umol/kg (20 mg/kg of Hly72 equals 75 umol/kg). One-way ANOVA statistics Analysis, *: P<0.05, **: P⋅<0.01, ***: P<0.001.
Intraperitoneal injection of Hly72 at a concentration of 75 umol/kg (20 mg/kg of Hly72 equals 75 umol/kg), Hgsy-98, Hybj-12a, Hybj-13a are all 7.5 umol/kg. One-way ANOVA statistical analysis, *: P<0.05, **: P⋅<0.01, ***: P<0.001.
The next question we are very concerned about is whether HLY78 has similar functions to NUCB2 protein in mice. Up to now, the most classic function reported for NUCB2 protein is to reduce the food intake of mice at night. Therefore, the experiment was designed: 20 mg/kg of HLY78 was injected intraperitoneally within two hours before turning off the lights at night, and then the food intake of the mice was measured at different time points (0-3 h, 0-6 h, 0-12 h, 0-24 h). […] During the three days of the adaptive injection period before HLY78 injection, both groups of mice were injected with DMSO. On the day of injection of HLY78 and the two days before the injection of DMSO, the body weight of the two groups of mice is also the same (FIG. 2b). […]
Experimental methods were the same as in Examples 2 and 4.
Three compounds of Hgsy-98, Hybj-12a and Hybj-13a were selected for re-experiment (5-6 mice per group).

Solubility (Table C) = assay type: physicochemical; details: solvent named in Table C
NUCB2 protein [1] = target: T1, NUCB2 protein (Mus musculus, UniProt P81117); assay: In vitro binding experiment (streptavidin-agarose pull-down, Western blot) of biotin-linked small molecules with full-length NUCB2; details: mouse full-length NUCB2 expressed in E. coli
T1 construct: Immediately the mouse full-length NUCB2 protein expressed in E. coli was purified; His tag (inferred from pET-28A vector, Ni-NTA purification and His antibody); made in house; host or cells: E. coli BL21-CodonPlus (DE3)
T1 sequence (P81117 25-420): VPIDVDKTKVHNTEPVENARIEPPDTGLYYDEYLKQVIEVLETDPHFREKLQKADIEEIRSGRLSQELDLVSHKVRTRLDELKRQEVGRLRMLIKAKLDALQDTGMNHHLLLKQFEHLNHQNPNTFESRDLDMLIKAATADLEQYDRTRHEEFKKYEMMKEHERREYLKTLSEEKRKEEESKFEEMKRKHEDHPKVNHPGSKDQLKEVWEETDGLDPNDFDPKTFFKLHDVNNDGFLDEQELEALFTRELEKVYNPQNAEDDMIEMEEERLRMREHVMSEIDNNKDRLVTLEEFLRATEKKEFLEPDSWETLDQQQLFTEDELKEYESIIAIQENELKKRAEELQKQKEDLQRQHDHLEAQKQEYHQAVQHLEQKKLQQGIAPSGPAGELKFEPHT
Procedure: (§1) When doing the combining experiments, (1) pre-treating Streptavidin-Agarose, washing Streptavidin-Agarose Beads with IP buffer, and spinning it on the rotor for 10 minutes. (2) Re-binding small molecules HLY179 (20 μM) and Streptavidin-Agarose Beads, spinning it in a refrigeration house at 4° C. for 1-2 hours. (3) When the previous step was performed for about 1 hour, the protein was pre-cleared at the same time, and the protein and the washed Streptavidin-Agarose were rotated in a refrigeration house at 4° C. for 30 minutes. (4) the Streptavidin-Agarose Beads binded with HLY179 was centrifuged, the supernatant was removed, washed again with 600 μL of IP buffer (rotated at 4° C. for 3 minutes), centrifuged, and the supernatant was removed carefully. (5) the pre-cleard protein was added and rotated in a refrigeration house at 4° C. for 2 hours. Washd twice with IP buffer 800 μL, 2 minutes each time (all rotated in a refrigeration house at 4° C.). After the last wash, the supernatant was removed, 40 μL of 2*loading was added and cooked for 10 minutes, stored at −20° C. When doing competitive binding experiments, in the third step while pre-treating the protein adding different small molecule compounds, the final concentration was 100 μM, and the rest was the same. Western Blot: Preparing the appropriate concentration of SDS-PAGE gel, adding protein sample for electrophoretic separation. […]

Wnt signal = assay: TOPFlash reporter gene activity test in HEK293T cells; assay type: cell-based
Procedure: The HEK293T cells used for the measurement of reporter gene activity were plated at 20 hours before transfection and cultured to about 50% coverage for the transfection. The transfection method was as described above. For HEK293T cells, transfection was performed according to 20 ng TOPFlash, 20 ng GFP and 460 ng lacZ per well, and Wnt3a or Nesfatin-1/NUCB2 protein was added at 18 hours after transfection to stimulate for 6-8 hours, and the cell was lysed with Boehringer Mannheim Luciferase Assay Kit (200 μl/well) for 15 minutes, 50 μl lysate was added in the fluorometer BIO-TEK Synergy2 (Gene Company Limited) to measure the GFP fluorescence intensity in the cell lysate as an internal standard, and then 20 μl luciferase substrate (Roche) was added for the reaction, the luciferase activity was detected in the chemiluminescence channel, and finally the GFP reading was used as an internal standard for homogenization.
We focus on the three small molecules HLY72, HLY103, and HSS49A (FIG. 3a). […] So that the first biochemical experiment design is: whether these three small molecules can compete for the binding of HLY179 to NUCB2 protein.

normal mice = assay: Food intake of mice after single intraperitoneal injection; assay type: in vivo, mouse; details: 20 mg/kg intraperitoneal; 0-3 h, 0-6 h, 0-12 h, 0-24 h
Procedure: Mice were intraperitoneally injected with DMSO or HLY72 (dissolved in DMSO) 25 μL within 2 hours before turning off the lamp. During the intragastric experiment, the high concentration of HLY72 dissolved in DMSO was dissolved in 10% cyclodextrin, and the total volume was 100 μL Volume by gavage, so that the final concentration of DMSO was less than 10%. The diet was weighed at the 3rd hour, the 6th hour, the 12th hour, and the 24th hour respectively after the lights out. The corresponding mouse body weight was also weighed at the same time before the daily administration. The fat content of mice was measured with the magnetic resonance fat content measuring instrument of the animal platform in SIBCB.
The next question we are very concerned about is whether HLY78 has similar functions to NUCB2 protein in mice. Up to now, the most classic function reported for NUCB2 protein is to reduce the food intake of mice at night. Therefore, the experiment was designed: 20 mg/kg of HLY78 was injected intraperitoneally within two hours before turning off the lights at night, and then the food intake of the mice was measured at different time points (0-3 h, 0-6 h, 0-12 h, 0-24 h). […] During the three days of the adaptive injection period before HLY78 injection, both groups of mice were injected with DMSO. On the day of injection of HLY78 and the two days before the injection of DMSO, the body weight of the two groups of mice is also the same (FIG. 2b).
Next, two small molecules HLY72 and HLY103 were selected to perform functional experiments on the food intake in mice.

db/db mice and DIO mice = assay: Long-term administration, weight loss in db/db mice and DIO mice; assay type: in vivo, mouse
NUCB2 protein [2] = target: T1, NUCB2 protein; assay: Competitive binding experiment: small molecules compete with Bio78 (HLY179) for NUCB2; details: competitor final concentration 100 μM; HLY179 20 μM
Procedure: as §1

Structure (SMILES) | activity compared with HLY72 (mice) | Solubility (Solubility (Table C)) | inhibition of food intake in mice (mice) | further results
C/C=C/c1cccc2c1N(CCCC)Cc1cc(OC)ccc1-2 [Hgsy-98] | significantly better | DMSO | – | activity relative to Hly72 (mice): about 10 times; effective concentration (EC50) relative to HLY72 (mice): one tenth
Cc1cccc2c1N(C)Cc1cc(OCc3cc4cc(Cl)ccc4s3)ccc1-2 [Hcj194-d] | – | DMSO | obvious effects | –
C=Cc1cccc2c1N(CCCCCC)Cc1cc3c(cc1-2)OCO3 [Hybj-9a] | – | DMSO | obvious effects | –
C=Cc1cccc2c1N(CCCCCCCCCCCC)Cc1cc3c(cc1-2)OCO3 [Hybj-13a] | significantly better | DMSO | obvious effects | activity relative to Hly72 (mice): about 10 times; effective concentration (EC50) relative to HLY72 (mice): one tenth
C=Cc1cccc2c1N(C)Cc1cc(OCC)c(OCC)cc1-2 [Hybj-2a] | – | – | obvious effects | –
C/C=C/c1cccc2c3cc(OC)c(OC)cc3c(=O)n(CCCC)c12 [Hgsy-80] | significantly better | DMSO | obvious effects | –
C=Cc1cccc2c1N(C)Cc1cc(OCCCC)c(OCCCC)cc1-2 [Hybj-3a] | – | – | obvious effects | –
C=Cc1cccc2c1N(C)Cc1cc(OC)c(OC)cc1-2 [Hybj-1a] | – | DMSO | obvious effects | –
CCCCn1c(=O)c2cc(OC)c(OC)cc2c2cccc(C=O)c21 [Hgsy-50] | significantly better | DMSO | obvious effects | –
CCc1cccc2c1N(C)Cc1cc(OC)ccc1-2 [Hcj12] | – | DMSO | obvious effects | –
C/C=C/c1cccc2c1N(CCCC)Cc1cc(OC)c(OC)cc1-2 [Hgsy-86] | – | DMSO | obvious effects | –
C=Cc1cccc2c1N(CCCCCCCCCC)Cc1cc3c(cc1-2)OCO3 [Hyj-12a] | significantly better | DMSO | obvious effects | activity relative to Hly72 (mice): 30-40 times; effective concentration (EC50) relative to HLY72 (mice): one tenth
C=Cc1cccc2c1N(CCCCCCCCCCCCCCCCCC)Cc1cc3c(cc1-2)OCO3 [Hyb-17a] | significantly better | DMSO | obvious effects | –
COc1cc2c(=O)n(C)c3c(OC)cccc3c2cc1OC [Hgsy-35] | – | DMSO | obvious effects | –
C/C=C/c1cccc2c1N(C)Cc1cc(OC)c(OC)cc1-2 [Hgsy-78] | – | DMSO | obvious effects | –
CCc1cccc2c1N(C)Cc1cc3c(cc1-2)OCO3 [HLY78] | – | – | – | binding of purified NUCB2 protein to small molecule (NUCB2 protein [1]): specifically binds; activity of Wnt signal activation (Wnt signal): can synergistically activate; food intake of mice (normal mice): significantly reduce; weight loss effect (db/db mice and DIO mice): good weight loss effect; compete with Bio78 for binding to NUCB2 (NUCB2 protein [2]): can compete
Cc1cccc2c1N(C)Cc1cc(O)ccc1-2 [Hcj16] | – | DMSO | obvious effects | –
C/C=C/c1cccc2c1N(C)Cc1cc(OC)ccc1-2 [Hgsy-92-1] | – | DMSO | obvious effects | –
CCn1c(=O)c2cc(OC)c(OC)cc2c2cccc(CO)c21 [Hgsy-36] | – | DMSO | obvious effects | –
